Data as given in paper PMC8442742 (Pain, 2021).

Tests used:
C57Bl/6 mice [1] = assay: Y maze spontaneous alternation test; type: in vivo; conditions: two cycles of cisplatin
synaptosomes = conditions: two cycles of cisplatin
C57Bl/6 mice [2] = assay: Puzzle box test; type: in vivo; conditions: two cycles of cisplatin; cardboard plug, trials 8–11
[3] = system: intraepidermal nerve fibers; assay: IENF density in hind paw skin; type: in vivo, mice; conditions: two cycles of cisplatin 2.3 mg/kg i.p.
[4] = system: NCI-H69 human lung cancer xenograft; assay: NCI-H69 lung cancer xenograft, tumor volume; type: in vivo, BALB/c nude mice; conditions: cisplatin 4 mg/kg i.p. every 4 days, 6 doses
p-c-Jun in the DRGs = assay: p-c-Jun in DRG after one treatment cycle; type: in vivo, mice; conditions: one cycle of cisplatin 2.3 mg/kg i.p. for 5 days
DRG transcriptome = assay: RNA sequencing of DRG; type: in vivo, mice; conditions: cisplatin alone vs controls, one cycle

## N.N.[Cl][Pt][Cl] [cisplatin]
C57Bl/6 mice [1]
  Y maze alternation rate: significant decrease in the alternation rate
synaptosomes
  synaptosomal MRC and SRC: reduced maximal respiratory capacity and spare respiratory capacity
C57Bl/6 mice [2]
  time to enter the goal box with difficult obstacle: required significantly more time to enter the goal box
[3]
  IENF density in the hind paws: reduced IENF density
[4]
  tumor growth: significantly reduced tumor growth
p-c-Jun in the DRGs
  p-c-Jun in DRG: significantly, but modestly, induced p-c-Jun
DRG transcriptome
  number of genes with changed expression: 1337
